For this assay, the target named is T1, Met receptor (EGFR/Met chimeric cells, EMR) (Homo sapiens, UniProt P08581).
T1 construct: expressed in transfected cells; the other entry of the earlier key: EGFR (P00533, Epidermal growth factor receptor)
In words: Met Autophosphorylation Assay. The class given is biochemical. In short, it runs like this: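 Met phosphorylation was measured by capture ELISA. Lysates (90 μg/100 μl, HNTG plus 1 mM PMSF) from transiently transfected EGFR/Met chimera (EMR) cells were bound for 60 min at room temperature to wells holding rabbit anti-Met (C-28) on goat anti-rabbit coat. Phosphotyrosine was the read-out.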

This is an account of results in US20020026053A1, “Novel 3-(substituted) -2- indolinones compounds and use thereof as inhibitors of protein kinase activity” (priority 1997, published 2002).

T1 sequence (P08581 with tags, fused parts or gaps): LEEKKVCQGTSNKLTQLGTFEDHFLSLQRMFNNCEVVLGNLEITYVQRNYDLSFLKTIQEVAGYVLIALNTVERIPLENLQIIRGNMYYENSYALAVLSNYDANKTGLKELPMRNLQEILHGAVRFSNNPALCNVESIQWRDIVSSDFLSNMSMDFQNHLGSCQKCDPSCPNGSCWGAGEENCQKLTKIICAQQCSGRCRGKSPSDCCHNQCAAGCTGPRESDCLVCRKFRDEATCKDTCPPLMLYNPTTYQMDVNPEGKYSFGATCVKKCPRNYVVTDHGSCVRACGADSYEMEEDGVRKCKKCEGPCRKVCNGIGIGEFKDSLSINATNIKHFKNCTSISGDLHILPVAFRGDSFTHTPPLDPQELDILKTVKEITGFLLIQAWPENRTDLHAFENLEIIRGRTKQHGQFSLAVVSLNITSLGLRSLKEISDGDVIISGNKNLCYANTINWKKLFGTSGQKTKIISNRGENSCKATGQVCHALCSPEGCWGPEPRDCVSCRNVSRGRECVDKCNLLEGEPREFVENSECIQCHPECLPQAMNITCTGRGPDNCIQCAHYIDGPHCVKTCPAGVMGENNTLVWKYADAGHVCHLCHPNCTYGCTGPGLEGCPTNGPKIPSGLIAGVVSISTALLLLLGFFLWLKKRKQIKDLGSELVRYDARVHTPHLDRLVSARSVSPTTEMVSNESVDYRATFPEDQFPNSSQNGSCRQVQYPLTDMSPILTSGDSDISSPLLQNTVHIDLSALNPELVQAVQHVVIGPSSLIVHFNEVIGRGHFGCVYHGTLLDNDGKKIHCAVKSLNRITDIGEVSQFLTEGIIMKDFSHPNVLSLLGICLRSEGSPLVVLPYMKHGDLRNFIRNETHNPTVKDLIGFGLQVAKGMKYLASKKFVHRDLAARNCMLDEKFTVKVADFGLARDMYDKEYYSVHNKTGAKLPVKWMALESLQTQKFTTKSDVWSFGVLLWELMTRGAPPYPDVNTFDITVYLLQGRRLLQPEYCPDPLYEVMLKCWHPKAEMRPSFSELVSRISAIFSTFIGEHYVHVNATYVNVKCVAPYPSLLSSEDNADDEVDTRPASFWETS

With `Cc1c(O)ccc(C=C2C(=O)Nc3c(Br)cc(Br)c(C)c32)c1O` [10718/H09], the “Met Kinase % Inhibition (P.130)” value is 73.6%.
Turning to `Cc1c(Br)cc(Br)c2c1C(=Cc1ccco1)C(=O)N2` [10718/H10], the “Met Kinase % Inhibition (P.130)” value is 19.9%.
In the case of `Cc1c(Br)cc(Br)c2c1C(=Cc1ccc([N+](=O)[O-])o1)C(=O)N2` [10718/H11], the “Met Kinase % Inhibition (P.130)” value worked out at 44.9%.
On to `CCOc1ccc(C=C2C(=O)Nc3c(Br)cc(Br)c(C)c32)cc1OC` [10719/H02], for which the “Met Kinase % Inhibition (P.130)” value is listed as 36.9%.
Turning to `Cc1c(Br)cc(Br)c2c1C(=Cc1ccc(O)c(O)c1)C(=O)N2` [10719/H03], the “Met Kinase % Inhibition (P.130)” value is listed as 67.0%.
Regarding `COc1ccc(C=C2C(=O)Nc3c(Br)cc(Br)c(C)c32)c(OC)c1` [10719/H04], the “Met Kinase % Inhibition (P.130)” value is 0.7%.
Turning to `CCc1c(C)[nH]c(C=C2C(=O)Nc3c(Br)cc(Br)c(C)c32)c1C` [10719/H05], the “Met Kinase % Inhibition (P.130)” value turned out to be 20.9%.
In the case of `COc1cc(OC)c(C=C2C(=O)Nc3c(Br)cc(Br)c(C)c32)c(OC)c1` [10719/H06], the “Met Kinase % Inhibition (P.130)” value worked out at 1.3%.
Regarding `CCN(CC)c1ccc(C=C2C(=O)Nc3c(Br)cc(Br)c(C)c32)c(O)c1` [10734/H05], the “Met Kinase % Inhibition (P.130)” value is 51.1%.
As to `Cc1c(Br)cc(Br)c2c1C(=Cc1ccc([N+](=O)[O-])cc1)C(=O)N2` [10734/H06], the “Met Kinase % Inhibition (P.130)” value is 32.7%.
`Cc1c(Br)cc(Br)c2c1C(=Cc1cc(Br)cc(Br)c1O)C(=O)N2` [10734/H07]: the “Met Kinase % Inhibition (P.130)” value worked out at 84.9%.
For `Cc1c(Br)cc(Br)c2c1C(=Cc1cccc(F)c1O)C(=O)N2` [10734/H08], the “Met Kinase % Inhibition (P.130)” value is recorded as 64.8%.
Regarding `Cc1c(Br)cc(Br)c2c1C(=Cc1ccc(O)c(Br)c1)C(=O)N2` [10734/H09], the “Met Kinase % Inhibition (P.130)” value is recorded as 78.4%.
Regarding `Cc1c(Br)cc(Br)c2c1C(=Cc1ccc(C(C)(C)C)cc1)C(=O)N2` [10734/H10], the “Met Kinase % Inhibition (P.130)” value is 23.5%.
Consider `Cc1c(Br)cc(Br)c2c1C(=Cc1ccc(Br)s1)C(=O)N2` [10734/H11], for which the “Met Kinase % Inhibition (P.130)” value was determined as 28.7%.
On to `Cc1ccccc1C=C1C(=O)Nc2c(Br)cc(Br)cc21` [10735/A02], for which the “Met Kinase % Inhibition (P.130)” value is reported as 26.9%.
With `O=C1Nc2c(Br)cc(Br)cc2C1=Cc1ccc(F)c(F)c1` [10735/A03], the “Met Kinase % Inhibition (P.130)” value stood at 53.0%.
Regarding `O=C1Nc2c(Br)cc(Br)cc2C1=Cc1cc(F)cc(F)c1` [10735/A04], the “Met Kinase % Inhibition (P.130)” value was determined as 48.0%.
With `O=C1Nc2c(Br)cc(Br)cc2C1=Cc1cccc(C(F)(F)F)c1` [10735/A05], the “Met Kinase % Inhibition (P.130)” value came to 46.1%.
Consider `O=C1Nc2c(Br)cc(Br)cc2C1=Cc1cc(C(F)(F)F)cc(C(F)(F)F)c1` [10735/A06], for which the “Met Kinase % Inhibition (P.130)” value is 58.9%.
With `N#Cc1ccccc1C=C1C(=O)Nc2c(Br)cc(Br)cc21` [10735/A07], the “Met Kinase % Inhibition (P.130)” value is given as 61.9%.
For the compound `O=C1Nc2c(Br)cc(Br)cc2C1=Cc1c(F)cccc1F` [10735/A08], the “Met Kinase % Inhibition (P.130)” value was found to be 50.8%.
Next, `O=C1Nc2c(Br)cc(Br)cc2C1=Cc1cccc2ccccc12` [10735/A09]: 19.2%; `O=C1Nc2c(Br)cc(Br)cc2C1=Cc1ccc(Cl)cc1Cl` [10735/A10]: 41.4%; `O=C1Nc2c(Br)cc(Br)cc2C1=Cc1ccc(-c2ccccc2)cc1` [10735/A11]: 24.5%.
Take `Cc1ccccc1C=C1C(=O)Nc2ccc(I)cc21` [10735/B02]: the “Met Kinase % Inhibition (P.130)” value is recorded as 72.4%.
With `O=C1Nc2ccc(I)cc2C1=Cc1ccc(F)c(F)c1` [10735/B03], the “Met Kinase % Inhibition (P.130)” value is listed as 73.3%.
Take `O=C1Nc2ccc(I)cc2C1=Cc1cc(F)cc(F)c1` [10735/B04]: the “Met Kinase % Inhibition (P.130)” value is recorded as 79.0%.
For `O=C1Nc2ccc(I)cc2C1=Cc1cccc(C(F)(F)F)c1` [10735/B05], the “Met Kinase % Inhibition (P.130)” value came to 83.7%.
`O=C1Nc2ccc(I)cc2C1=Cc1cc(C(F)(F)F)cc(C(F)(F)F)c1` [10735/B06]: the “Met Kinase % Inhibition (P.130)” value was 82.7%.
Consider `N#Cc1ccccc1C=C1C(=O)Nc2ccc(I)cc21` [10735/B07], for which the “Met Kinase % Inhibition (P.130)” value is 56.0%.
With `O=C1Nc2ccc(I)cc2C1=Cc1c(F)cccc1F` [10735/B08], the “Met Kinase % Inhibition (P.130)” value turned out to be 53.4%.
For the compound `O=C1Nc2ccc(I)cc2C1=Cc1cccc2ccccc12` [10735/B09], the “Met Kinase % Inhibition (P.130)” value came out at 46.8%.
The result for `O=C1Nc2ccc(I)cc2C1=Cc1ccc(Cl)cc1Cl` [10735/B10] reads 73.3%; that for `O=C1Nc2ccc(I)cc2C1=Cc1ccc(-c2ccccc2)cc1` [10735/B11], 69.0%; that for `Cc1ccccc1C=C1C(=O)Nc2ccc(Br)c(C)c21` [10735/C02], 27.7%.
Turning to `Cc1c(Br)ccc2c1C(=Cc1ccc(F)c(F)c1)C(=O)N2` [10735/C03], the “Met Kinase % Inhibition (P.130)” value was determined as 66.2%.
Take `Cc1c(Br)ccc2c1C(=Cc1cc(F)cc(F)c1)C(=O)N2` [10735/C04]: the “Met Kinase % Inhibition (P.130)” value was 75.8%.
Turning to `Cc1c(Br)ccc2c1C(=Cc1cccc(C(F)(F)F)c1)C(=O)N2` [10735/C05], the “Met Kinase % Inhibition (P.130)” value amounted to 59.4%.
With `Cc1c(Br)ccc2c1C(=Cc1cc(C(F)(F)F)cc(C(F)(F)F)c1)C(=O)N2` [10735/C06], the “Met Kinase % Inhibition (P.130)” value was 47.0%.
In the case of `Cc1c(Br)ccc2c1C(=Cc1ccccc1C#N)C(=O)N2` [10735/C07], the “Met Kinase % Inhibition (P.130)” value is given as 49.1%.
As to `Cc1c(Br)ccc2c1C(=Cc1c(F)cccc1F)C(=O)N2` [10735/C08], the “Met Kinase % Inhibition (P.130)” value was found to be 49.8%.
Regarding `Cc1c(Br)ccc2c1C(=Cc1cccc3ccccc13)C(=O)N2` [10735/C09], the “Met Kinase % Inhibition (P.130)” value is on record as 24.1%.
For `Cc1c(Br)ccc2c1C(=Cc1ccc(Cl)cc1Cl)C(=O)N2` [10735/C10], the “Met Kinase % Inhibition (P.130)” value stood at 37.8%.
The result for `Cc1c(Br)ccc2c1C(=Cc1ccc(-c3ccccc3)cc1)C(=O)N2` [10735/C11] reads 14.1%.
For the compound `CNS(=O)(=O)c1ccc2c(c1)C(=Cc1ccccc1C)C(=O)N2` [10735/D02], the “Met Kinase % Inhibition (P.130)” value stood at 32.6%.
The result for `CNS(=O)(=O)c1ccc2c(c1)C(=Cc1ccc(F)c(F)c1)C(=O)N2` [10735/D03] reads 41.2%.
In the case of `CNS(=O)(=O)c1ccc2c(c1)C(=Cc1cc(F)cc(F)c1)C(=O)N2` [10735/D04], the “Met Kinase % Inhibition (P.130)” value turned out to be 25.6%.
Consider `CNS(=O)(=O)c1ccc2c(c1)C(=Cc1cccc(C(F)(F)F)c1)C(=O)N2` [10735/D05], for which the “Met Kinase % Inhibition (P.130)” value is on record as 33.7%.
For `CNS(=O)(=O)c1ccc2c(c1)C(=Cc1cc(C(F)(F)F)cc(C(F)(F)F)c1)C(=O)N2` [10735/D06], the “Met Kinase % Inhibition (P.130)” value stood at 36.9%.
Consider `CNS(=O)(=O)c1ccc2c(c1)C(=Cc1ccccc1C#N)C(=O)N2` [10735/D07], for which the “Met Kinase % Inhibition (P.130)” value is given as 33.7%.
In the case of `CNS(=O)(=O)c1ccc2c(c1)C(=Cc1c(F)cccc1F)C(=O)N2` [10735/D08], the “Met Kinase % Inhibition (P.130)” value is reported as 25.6%.
As for `CNS(=O)(=O)c1ccc2c(c1)C(=Cc1cccc3ccccc13)C(=O)N2` [10735/D09], the “Met Kinase % Inhibition (P.130)” value was determined as 23.0%.
Take `CNS(=O)(=O)c1ccc2c(c1)C(=Cc1ccc(Cl)cc1Cl)C(=O)N2` [10735/D10]: the “Met Kinase % Inhibition (P.130)” value is given as 35.0%.
On to `CNS(=O)(=O)c1ccc2c(c1)C(=Cc1ccc(-c3ccccc3)cc1)C(=O)N2` [10735/D11], for which the “Met Kinase % Inhibition (P.130)” value is on record as 18.5%.
The result for `Cc1ccccc1C=C1C(=O)Nc2ccc(S(=O)(=O)Nc3ccc(C(F)(F)F)cc3)cc21` [10735/E02] reads 13.2%.
On to `O=C1Nc2ccc(S(=O)(=O)Nc3ccc(C(F)(F)F)cc3)cc2C1=Cc1ccc(F)c(F)c1` [10735/E03], for which the “Met Kinase % Inhibition (P.130)” value is recorded as 71.8%.
`O=C1Nc2ccc(S(=O)(=O)Nc3ccc(C(F)(F)F)cc3)cc2C1=Cc1cc(F)cc(F)c1` [10735/E04]: the “Met Kinase % Inhibition (P.130)” value is 85.2%.
Consider `O=C1Nc2ccc(S(=O)(=O)Nc3ccc(C(F)(F)F)cc3)cc2C1=Cc1cccc(C(F)(F)F)c1` [10735/E05], for which the “Met Kinase % Inhibition (P.130)” value is reported as 74.8%.
As for `O=C1Nc2ccc(S(=O)(=O)Nc3ccc(C(F)(F)F)cc3)cc2C1=Cc1cc(C(F)(F)F)cc(C(F)(F)F)c1` [10735/E06], the “Met Kinase % Inhibition (P.130)” value was found to be 33.3%.
The result for `N#Cc1ccccc1C=C1C(=O)Nc2ccc(S(=O)(=O)Nc3ccc(C(F)(F)F)cc3)cc21` [10735/E07] reads 64.5%.
Consider `O=C1Nc2ccc(S(=O)(=O)Nc3ccc(C(F)(F)F)cc3)cc2C1=Cc1c(F)cccc1F` [10735/E08], for which the “Met Kinase % Inhibition (P.130)” value came out at 35.7%.
Consider `O=C1Nc2ccc(S(=O)(=O)Nc3ccc(C(F)(F)F)cc3)cc2C1=Cc1cccc2ccccc12` [10735/E09], for which the “Met Kinase % Inhibition (P.130)” value was 11.3%.
As for `O=C1Nc2ccc(S(=O)(=O)Nc3ccc(C(F)(F)F)cc3)cc2C1=Cc1ccc(Cl)cc1Cl` [10735/E10], the “Met Kinase % Inhibition (P.130)” value was determined as 41.8%.
The result for `O=C1Nc2ccc(S(=O)(=O)Nc3ccc(C(F)(F)F)cc3)cc2C1=Cc1ccc(-c2ccccc2)cc1` [10735/E11] reads 7.2%.
The result for `Cc1ccccc1C=C1C(=O)Nc2ccc(S(=O)(=O)N3CCOCC3)cc21` [10735/F02] reads 31.2%.
On to `O=C1Nc2ccc(S(=O)(=O)N3CCOCC3)cc2C1=Cc1ccc(F)c(F)c1` [10735/F03], for which the “Met Kinase % Inhibition (P.130)” value worked out at 36.1%.
The result for `O=C1Nc2ccc(S(=O)(=O)N3CCOCC3)cc2C1=Cc1cc(F)cc(F)c1` [10735/F04] reads 41.6%; that for `O=C1Nc2ccc(S(=O)(=O)N3CCOCC3)cc2C1=Cc1cccc(C(F)(F)F)c1` [10735/F05], 26.4%; that for `O=C1Nc2ccc(S(=O)(=O)N3CCOCC3)cc2C1=Cc1cc(C(F)(F)F)cc(C(F)(F)F)c1` [10735/F06], 39.5%.
